Test results: patent US12077508B2, “Inhibitors of the Notch transcriptional activation complex kinase (“NACK”) and methods for use of the same” (UNIVERSITY OF MIAMI, priority 2018, dated 2024)
Entries after “also recorded” stand apart in the source; their conditions may differ.

Key:
OE33 cells = assay: Cell apoptosis assay (Annexin V/PI flow cytometry); type: cell-based, human; settings: day 7 of treatment, FIG. 9A
Procedure: To investigate how Z271-0326 inhibits cell growth in EAC cell lines, the effect of Z271-0326 treatment was evaluated on apoptosis. OE33 was treated either with the GSI DAPT or Z271-0326 every other day, and their effects on apoptosis were analyzed. On day 7 of treatment, cell apoptosis was analyzed using FITC Annexin V/Dead Cell Apoptosis Kit with FIFC annexin V and PI for flow cytometry (Invitrogen, V13242).

HC11 cells = assay: Colony formation assay in HC11 cells; type: cell-based, mouse; settings: Notch/NACK independent cell line; FIG. 5B
Procedure: (§1) A cell based colony formation assay was used in these experiments. Normal mouse mammary epithelia HC11 cells have little or no endogenous NACK expression, and NACK knockdown had no effect on the growth of HC11 cells (FIG. 5A, lower panel). […] Knockdown of NACK was confirmed by western blot and qPCR (FIGS. 1D and 1E). […] Therefore, compounds that affect OE33 colony formation but not HC11 were desired. In order to screen the compounds, cells were treated with test compounds every other day.
(§2) Colony formation assay was utilized to determine the effect of small molecule inhibitors on cell proliferation. In general, different cell lines (NACK dependent or independent) will be seeded in 6-well plates at a density of 2000 cells per well and allowed to attach overnight. Inhibitor treatment commenced 24 hours post seeding, and the media containing inhibitor was changed every 48 hours thereafter. After 168 hours, colonies were be stained with Crystal Violet (Millipore) and counted.

OE33 cell line = assay: Colony formation assay in OE33 cells; type: cell-based, human; settings: cells treated every other day; FIGS. 5B, 5C
Procedure: as §1, §2

HES1 promoter = assay: Chromatin immunoprecipitation (ChIP) at the HES1 promoter in OE33; type: cell-based, human; settings: 24 hours, FIG. 8C
Procedure: Notch/NACK-dependent cells were treated with either DAPT as a positive control, DMSO (vehicle) as a negative control, or compounds for screening for 24 hours. After treatment, cells were cross-linked and sonicated to yield chromatin fragments of approximately 500 bp, as previously described (See Weaver et al., Cancer Research 74, 4741-4751 (2014)). Lysates were immunoprecipitated with either α-Notch1 (Bethyl Laboratories, Montgomery, TX; A301-894A), α-Maml1 (Cell Signaling, 12166s), α-NACK (Bethyl Laboratories, A302-675A), or α-PoIII pSer5 (Abcam, ab5131) antibodies. DNA immunoprecipitates were cleaned using the PCR purification Kit (Qiagen). DNA were detected by Syber green qPCR using HES1 specific oligonucleotide primers (forward: 5′CGTGTCTCCTCCTCCCATT3′ (SEQ ID NO: 2); reverse: 5′GGGGGATTCCGCTGTTAT3′ (SEQ ID NO:3)).

For `C[C@H](NC(=O)Cc1cc(F)cc(F)c1)C(=O)N[C@H](C(=O)OC(C)(C)C)c1ccccc1` [DAPT, reference compound], the “increase in the percent of cells undergoing apoptosis compared to the control” value (OE33 cells) was “twofold”, the “HC11 colony formation / viability” value (HC11 cells) was “did not alter the viability of HC11 cells; also recorded: insensitive” and the OE33 colony formation (OE33 cell line) was “reduction in the colony formation”. The “binding of N1ICD and NACK to the HES1 promoter” value (HES1 promoter) was “abrogated the binding of N1ICD and NACK to the HES1 promoter”.
